Measurements from US3954875A, “Benzophenone herbicides” (Rohm and Haas Company, priority 1973, dated 1976).

Tests used:
Monocots = assay: Preemergence weed control in flats (Example 14, Table II), monocot weeds; assay type: in vivo; details: about 2 weeks after application
Description: (§1) Using the procedure described below, the benzophenones of Examples 1 and 2 were evaluated for control of the following weeds:
Barnyardgrass (Echinochloa crusgalli)
Crabgrass (Digitaria spp.)
Foxtail (Setaria italica)
Johnsongrass (Sorghum halepense)
Quackgrass (Agropyron repens)
Yellow millet (Panicum miliaceaum)
Wild oats (Sesbania spp.)
(§2) The following test procedure is employed. Seeds of selected weeds are planted in soil in flats, and the flats are treated with the test compound immediately after the planting. The compound to be evaluated is dissolved in acetone, diluted with water, and sprayed over the flats using a carrier volume equivalent to 50 gallons per acre at the rate of application (pounds per acre, lb/A.) specified in the tables. About 2 weeks after the application of the test compound, the state of growth of the plants is observed and the phytotoxic effect of the compound is evaluated. Table II gives the average percent control achieved by the test compounds in terms of the percent of the plants which are killed by the compounds.

Dicots = assay: Preemergence weed control in flats (Example 14, Table II), dicot weeds; assay type: in vivo; details: about 2 weeks after application
Description: as §1
Coffeeweed (Sesbania spp.)
velvetleaf (Abutilon theophrasti)
as §2

Question: With `COc1ccc(C(=O)c2cccc(C)c2)cc1C` [Example 2, 4-methoxy-3,3'-dimethylbenzophenone] as the compound, how does the “% Control, Monocots (average percent of the plants killed)” value (Monocots; 2 lb./A.) read?
Answer: 88%

Question: And the “% Control, Monocots (average percent of the plants killed)” value (Monocots; 4 lb./A.)?
Answer: 93%

Question: What about the “% Control, Monocots (average percent of the plants killed)” value (Monocots; 8 lb./A.) of the same compound?
Answer: 100%

Question: And the “% Control, Dicots (average percent of the plants killed)” value (Dicots; 2 lb./A.)?
Answer: 60%

Question: What about the “% Control, Dicots (average percent of the plants killed)” value (Dicots; 4 lb./A.) of the same compound?
Answer: 55%

Question: And the “% Control, Dicots (average percent of the plants killed)” value (Dicots; 8 lb./A.)?
Answer: 65%

Question: With `COc1ccc(C(=O)c2cccc(C(F)(F)F)c2)cc1C` [Example 1, 4-methoxy-3-methyl-3'-trifluoromethylbenzophenone] as the compound, how does the “% Control, Monocots (average percent of the plants killed)” value (Monocots; 2 lb./A.) read?
Answer: 91%

Question: And the “% Control, Monocots (average percent of the plants killed)” value (Monocots; 4 lb./A.)?
Answer: 97%

Question: And the “% Control, Monocots (average percent of the plants killed)” value (Monocots; 8 lb./A.)?
Answer: 99%

Question: What about the “% Control, Dicots (average percent of the plants killed)” value (Dicots; 2 lb./A.) of the same compound?
Answer: 65%

Question: What about the “% Control, Dicots (average percent of the plants killed)” value (Dicots; 4 lb./A.) of the same compound?
Answer: 70%

Question: What about the “% Control, Dicots (average percent of the plants killed)” value (Dicots; 8 lb./A.) of the same compound?
Answer: 85%
